Measurements as given in US8486885B2, “β-arrestin effectors and compositions and methods of use thereof” (Trevena, Inc., priority 2008, dated 2013).
Non-standard residues stand in square brackets, D forms with d. Residues, ends and D or L forms follow the SMILES beside them. Sar = CNCC(=O)O

Legend:
Type in all cases: cell-based
[1] = target: human angiotensin 2 type 1 receptor (human AT1R) (Homo sapiens, UniProt P30556); assay: PathHunter β-arrestin-2 recruitment assay, human AT1R; conditions: PathHunter β-arrestin HEK293 cells
Experimental: (§1) The proximal event in β-arrestin function mediated by GPCRs is recruitment to receptors following ligand binding and receptor phosphorylation by GRK's. Thus, the measure of β-arrestin recruitment was used to determine ligand efficacy for β-arrestin function.
(§2) B-arrestin-2 recruitment to the human and rat angiotensin 2 type 1 receptor (human AT1R and rat AT1aR, respectively) was measured with the PathHunter™ β-arrestin assay (DiscoveRx Corporation, Fremont Calif.). Cells, plasmid(s), and detection reagent(s) were purchased from DiscoveRx, and assays were performed per manufacturer's instructions. Human AT1R and rat AT1aR were cloned into the pCMV-ProLink vector, verified by sequencing, and transfected into PathHunter β-arrestin HEK293 cells. Stably transfected clonal cell lines were selected with Hygromycin and G418. These clonal cell lines were used for all experiments.
(§3) For assays, 25,000 cells were seeded per well in 96-well microplates in volumes of 90 μL and allowed to grow overnight at 37° C. in 5% CO2. Peptides of the invention were dissolved in deionized water to a concentration of 1 mM. Peptides were then further diluted in assay buffer (Hank's balanced salt solution with 20 mM HEPES) to add peptide to the cells to reach final concentrations ranging from 10 μM to 1 pM. Cells were then incubated for 60 minutes at 37° C. in 5% CO2, followed by addition of 50 μL of PathHunter Detection Reagent to each well. The microplates were then incubated at room temperature for 60 minutes, and then luminescence was measured using a NOVOstar microplate reader purchased from BMG Labtech. B-arrestin-2 recruitment to receptors was measured as relative luminescence intensity expressed in arbitrary units.
Target sequence in this assay (P32121 whole entry partner, one chain of several): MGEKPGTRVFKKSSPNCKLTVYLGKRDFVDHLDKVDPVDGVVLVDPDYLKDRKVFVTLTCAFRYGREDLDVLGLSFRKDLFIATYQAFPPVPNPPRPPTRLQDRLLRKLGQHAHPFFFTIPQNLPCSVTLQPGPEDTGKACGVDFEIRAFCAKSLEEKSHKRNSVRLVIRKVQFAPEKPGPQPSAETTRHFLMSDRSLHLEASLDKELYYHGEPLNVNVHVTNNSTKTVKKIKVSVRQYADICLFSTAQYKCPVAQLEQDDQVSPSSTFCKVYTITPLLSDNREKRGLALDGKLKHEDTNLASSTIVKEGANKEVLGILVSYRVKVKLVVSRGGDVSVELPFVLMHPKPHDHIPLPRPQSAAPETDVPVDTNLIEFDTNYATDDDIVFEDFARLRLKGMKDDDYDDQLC

[2] = target: T1, human angiotensin 2 type 1 receptor (human AT1R) (Homo sapiens, UniProt P30556); assay: IP1 accumulation assay (IP-One Tb), human AT1R; conditions: cells expressing human AT1R
T1 construct: expressed in transfected cells
T1 sequence (P30556 1-359): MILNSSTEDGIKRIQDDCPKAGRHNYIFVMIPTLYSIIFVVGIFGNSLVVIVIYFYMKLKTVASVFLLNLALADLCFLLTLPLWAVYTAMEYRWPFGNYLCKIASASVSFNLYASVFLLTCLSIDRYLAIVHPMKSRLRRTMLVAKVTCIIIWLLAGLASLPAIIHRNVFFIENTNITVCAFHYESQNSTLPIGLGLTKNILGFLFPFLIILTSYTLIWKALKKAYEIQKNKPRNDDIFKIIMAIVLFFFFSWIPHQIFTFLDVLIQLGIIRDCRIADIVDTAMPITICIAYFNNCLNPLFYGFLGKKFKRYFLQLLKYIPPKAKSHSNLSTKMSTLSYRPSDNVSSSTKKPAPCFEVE
Experimental: (§4) A secondary measure of G protein coupling efficacy was also performed. IP3 is generated by activation of phospholipase C by Gα-q. IP3 is degraded to IP1, which can be forced to accumulate in cells by blocking degradation with lithium chloride. Thus we measured accumulation of IP1 to determine ligand efficacy for G protein activation.
(§5) IP1 accumulation generated by human and rat angiotensin 2 type 1 receptor (human AT1R and rat AT1aR, respectively) was measured with IP-One Tb kits purchased from Cisbio and used per the manufacturer's instructions. Clonal stably transfected cell lines expressing human AT1TR or rat AT1aR were used for all experiments.
(§6) For assays, 4,000 cells were seeded per well in 384-well small-volume microplates in volumes of 20 uL and allowed to grow overnight at 37° C. in 5% CO2. Cell growth media was then replaced with stimulation buffer supplied by Cisbio containing 50 mM lithium chloride. Peptides TRV-120,001 through TRV-120,035 were dissolved in deionized water to a concentration of 1 mM. For agonist detection, peptides were then further diluted in stimulation buffer to add peptide to the cells to reach final concentrations ranging from 10 uM to 1 pM. […] Following addition of peptides, cells were incubated at 37° C. in 5% CO2 for 30 minutes and then lysed with detection reagents added per manufacturer's instructions.

[3] = target: T2, rat angiotensin 2 type 1 receptor (rat AT1aR) (Rattus norvegicus, UniProt P25095); assay: IP1 accumulation assay (IP-One Tb), rat AT1aR; conditions: cells expressing rat AT1aR
T2 construct: expressed in transfected cells
T2 sequence (P25095 1-359): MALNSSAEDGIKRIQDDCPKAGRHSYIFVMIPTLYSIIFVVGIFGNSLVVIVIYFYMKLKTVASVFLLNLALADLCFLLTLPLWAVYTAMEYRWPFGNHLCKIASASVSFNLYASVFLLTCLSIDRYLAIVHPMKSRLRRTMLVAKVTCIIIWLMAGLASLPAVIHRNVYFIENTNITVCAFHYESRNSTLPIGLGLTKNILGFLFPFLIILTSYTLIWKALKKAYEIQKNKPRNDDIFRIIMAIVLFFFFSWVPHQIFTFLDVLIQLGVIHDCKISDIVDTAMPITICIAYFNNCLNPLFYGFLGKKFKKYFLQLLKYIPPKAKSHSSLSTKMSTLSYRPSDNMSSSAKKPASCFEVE
Experimental: as §4, §5, §6

[4] = target: rat angiotensin 2 type 1 receptor (rat AT1aR) (Rattus norvegicus, UniProt P25095); assay: PathHunter β-arrestin-2 recruitment assay, rat AT1aR; conditions: PathHunter β-arrestin HEK293 cells
Experimental: as §1, §2, §3
Target sequence in this assay (P32121 whole entry partner, one chain of several): as the sequence (P32121 whole entry partner, one chain of several) above

| SMILES | human AT1R b-arrestin2 Max (%) [1] [%] | human AT1R IP One EC50 (M) [2] | rat AT1aR IP One EC50 (M) [3] | rat AT1aR b-arrestin2 Max (%) [4] [%] | human AT1R IP One Max (%) [2] [%] | EC50 [3] [nM] | rat AT1aR IP One Max (%) [3] [%] | EC50 ([4]; read-out: rat AT1aR b-arrestin2 EC50) [nM] |
| --- | --- | --- | --- | --- | --- | --- | --- | --- |
| CNCC(=O)N[C@@H](CCCNC(=N)N)C(=O)N[C@H](C(=O)N[C@@H](Cc1ccc(O)cc1)C(=O)N[C@H](C(=O)N[C@@H](Cc1c[nH]cn1)C(=O)N1CCC[C@H]1C(=O)O)C(C)C)C(C)C [SEQ ID NO:54, Sar-Arg-Val-Tyr-Val-His-Pro-OH] | 58.6 | inactive | Inactive | 83.0 |  |  |  |  |
| CNCC(=O)N[C@@H](CCCNC(=N)N)C(=O)N[C@H](C(=O)N[C@@H](Cc1ccc(O)cc1)C(=O)N[C@H](C(=O)N[C@@H](Cc1c[nH]cn1)C(N)=O)C(C)C)C(C)C [SEQ ID NO:55, Sar-Arg-Val-Tyr-Val-His-NH2] (H-[Sar]RVYVH-NH2; N-terminus assumed) | 92.7 |  |  | 95.6 | 97.6 | 6.8 | 98.8 |  |
| CC[C@H](C)[C@H](NC(=O)[C@H](Cc1ccc(O)cc1)NC(=O)[C@@H](NC(=O)[C@H](CCCNC(=N)N)NC(=O)[C@@H](N)CC(=O)O)C(C)C)C(=O)N[C@@H](Cc1c[nH]cn1)C(=O)N1CCC[C@H]1C(=O)NCC(=O)O [SEQ ID NO:56] (H-DRVYIHPG-OH; N-terminus assumed) | 104.4 |  |  | 98.5 | 96.5 |  | 98.4 | 160 |
